“Also recorded” adds a separate entry of the source. Where two headings read alike, the source gives them in different places.
How the values were obtained:
[1] = biological target: L-type calcium channels; experiment: Competitive inhibition of 3H-PN200-110 (or 3H-nitrendipine) binding to L-type calcium channels, rat brain neuronal membranes; details: Table 1
[2] = system: neurons of the CA1 region of the hippocampus; experiment: Hippocampal slice assay: protection of CA1 neurons against hypoxic injury (recovery of population spike); format: cell-based, male Sprague-Dawley rats; details: for EC50: Rattus norvegicus, Neuron, 1 h, 50% recovery 60 minutes after hypoxia; for relative potency in hippocampal slices: comparison CYP-PA2 with CYP-PA1, or CYP-PA2X with CYP-PA2
Procedure: (2) Additional in vitro tests involving perfused slices of hippocampal tissue from the brains of sacrificed rats, as described in Example 8. Various poly-guanidino candidates with good combinations of N-channel and P/Q-channel blocking potency (as shown in the ligand blocking assays of Example 7) were tested to determine their ability to protect hippocampal neurons against damage during and after a period of tissue hypoxia.
The ability of CYP-PA1 and CYP-PA2 to protect against hypoxic injury in neurons of the CA1 region of the hippocampus was examined, using an assay which involves intact tissue sections taken from the hippocampal regions of rat brains. To carry out these assays, male Sprague-Dawley rats were briefly anesthetized with halothane and decapitated. Brains were quickly removed and placed in cold artificial cerebral spinal fluid (ACSF) for one minute. ACSF was composed of (in mM): NaCl, 126; KCl, 4; KH2 PO4, 1.4; MgSO4, 1.3; CaCl2, 2.4; NaHCO3, 26; and glucose, 4; pH 7.4, saturated with 95% O2, 5% CO2. Hippocampi were dissected free from the brains, and cut into 475 μm transverse sections (also called slices). The slices were placed in paired recording wells perfused with ACSF maintained at 37° C. Several hippocampal slices were placed in each recording well.
One hour after placement of the tissue slices into recording wells, the orthodromic CA1 population spike (PS) was measured. This indicator of synaptic and neuronal cell body function was elicited by stimulation with a twisted bipolar electrode placed over the CA3 Schaffer collaterals. Responses were recorded in the pyramidal layer of CA1, using a tungsten electrode. Strengths of currents and recording electrode depth were adjusted to obtain maximal amplitude of the CA1 PS. Only slices having an orthodromic CA1 PS of 3 mV or greater on initial assessment were used for further testing.
One tissue slice in each well was given orthodromic stimulation every 30 seconds throughout the experiment, in order to monitor evoked response activity. These slices were designated as "stimulated slices." In general, periodic stimulation provides an even more rigorous test of neuroprotective ability, since the repeated stimulation forces neurons to use up their metabolic resources after each impulse, to reestablish a polarized and ready-to-fire status.
For the remaining slices in each well, orthodromic and antidromic PS amplitude was assessed at the beginning and end of each experiment, without any periodic stimulation. These slices were designated as "unstimulated slices."
All slices were subjected to hypoxia by changing the perfusion medium to oxygen-devoid ACSF saturated with 95% N2, 5% CO2. Slices in one recording well additionally received exposure to various concentrations of the poly-guanidino compounds discussed above, added directly into the perfusion ACSF. Hypoxic duration was continued until 5 minutes after the disappearance of the hypoxic injury potential (Fairchild et al 1988) in the unmedicated stimulated slice. Final recovery was assessed 60 minutes after returning to oxygenated conditions. Exposure to the poly-guanidino compounds began 30 minutes prior to hypoxia and continued through the first 15 minutes of recovery.

[3] = LD50 toxicity test, intraperitoneal injection in mice; format: in vivo; details: for LD50: mouse, in vivo, ip
Procedure: At roughly the same time as the hippocampal tissue tests were being carried out, various polyamine compounds were also tested in toxicity tests, using conventional LD50 tests in mice. […] According, subsequent in vivo tests focused mainly on the CYP-PA1 compound.
These tests used intraperitoneal (IP) injection in mice.

[4] = system: neurons in CA1 and CA2 fields of the hippocampus and in the subiculum; experiment: In vivo protection against global brain ischemia (bilateral carotid occlusion, gerbils); parameters: species or system Adult male Mongolian gerbils; details: for median number of visibly damaged neurons, CA2: saline controls 23.9; for median number of visibly damaged neurons, Subiculum: saline controls 214.0; for median number of visibly damaged neurons, CA1: saline controls 235.5; for protection against ischemia: gerbils, IP
Procedure: Adult male Mongolian gerbils, 50 to 60 grams body weight, were put under methoxyflurane anesthesia and surgically subjected to reversible bilateral carotid occlusion for 5 minutes, using published methods (Wasterlain et al 1996). Occlusion was produced by exposure of both common carotid arteries via a ventral midline incision, isolation of the carotids with 4-0 silk suture, and application of microaneurysm clips. After five minutes of occlusion, the clips were removed, and the incision was closed. Body temperature was maintained at 37° C. throughout the surgical and recovery periods.
Blockage of both common carotids generates global brain ischemia in most gerbils. However, some gerbils contain a vascular structure at the base of the brain which resembles the Circle of Willis in humans, which allows some commingling of oxygenated blood from the carotid and vertebral arteries. Accordingly, the surgical method of generating global ischemia in gerbils by clamping flow through the carotids is not completely reliable in all test animals. To overcome this problem, a sufficient number of gerbils must be treated and tested to ensure statistically significant and reliable results.
A solution containing the test compound (or saline, as a control) was administered at the dosage and time described below, via intraperitoneal (IP) injection. The gerbils were sacrificed 72 hours later, and the brains were perfusion-fixed with paraformaldehyde. Serial sections of the brain were cut and stained with hematoxylin and eosin, and quantitative cell counts of live and dead neurons in the CA1 and CA2 fields of the hippocampus and in the subiculum were made, using both light and fluorescence microscopy. Evaluation of neuronal damage in other brain regions was also made on a semi-quantitative scale, and statistical analysis was performed on all damage scores (non-paired Student's T test).
The in vivo tests involving the CYP-PA2 compound used two different dosage regimens. One set of test animals received two injections: 30 mg/kg, at 30 minutes prior to the start of ischemia, and another 30 mg/kg at 90 minutes after the termination of ischemia. […] This neuroprotective activity was statistically significant at higher than the 95% level. A second set of test animals received a smaller dosage (10 mg/kg) of CYP-PA2, in a single injection 30 minutes before the onset of ischemia.
Tests on the CYP-PA1 compound used three different dosage levels: 7.5 mg/kg, injected 30 minutes before occlusion began; 20 mg/kg, injected 30 minutes before occlusion began; and 20 mg/kg, injected 30 minutes after occlusion was terminated.
The values reported in Table 3 are median numbers of visibly damaged neurons, counted in a single entire tissue slice.

[5] = system: L-type channels; details: background; cited from earlier work
[6] = system: T channels; details: background; cited from earlier work
[7] = stimulated slices, antidromic, read-out: EC50, antidromic PS amplitude, stimulated slices
[8] = stimulated slices, orthodromic, read-out: EC50, orthodromic PS amplitude, stimulated slices
[9] = unstimulated slices, antidromic, read-out: EC50, antidromic PS amplitude, unstimulated slices
[10] = unstimulated slices, orthodromic, read-out: EC50, orthodromic PS amplitude, unstimulated slices
[11] = 20 mg/kg IP post (30 minutes after occlusion terminated)

N=C(N)NCCC[C@H](N)C(=O)NCCN(CCNC(=O)[C@@H](N)CCCNC(=N)N)CCNC(=O)[C@@H](N)CCCNC(=N)N [CYP-PA1, tris(arginyl-2-aminoethyl)amine]
IC50 [1]: > 300 µM | neuroprotective activity in hippocampal slices [2]: substantial neuroprotective activity | EC50 [2, 7]: 95 µM | EC50 [2, 8]: 97 µM | EC50 [2, 9]: 87 µM | EC50 [2, 10]: 90 µM | toxicity: lethal or other adverse effects ([3]; IP, even at highest dosage tested (200 mg/kg)): no detectable lethal or other adverse effects; also recorded: completely free of any toxicity concerns | median number of visibly damaged neurons, CA2 ([4]; 7.5 mg/kg IP pre-occlusion): 15.2 | median number of visibly damaged neurons, Subiculum ([4]; 7.5 mg/kg IP pre-occlusion): 91.5 | median number of visibly damaged neurons, CA1 ([4]; 7.5 mg/kg IP pre-occlusion): 37.5 | median number of visibly damaged neurons, CA2 [4, 11]: 14.7 | median number of visibly damaged neurons, Subiculum [4, 11]: 31.0 | median number of visibly damaged neurons, CA1 [4, 11]: 14.5 | median number of visibly damaged neurons, CA2 ([4]; 20 mg/kg IP pre-occlusion): 10.4 | median number of visibly damaged neurons, Subiculum ([4]; 20 mg/kg IP pre-occlusion): 38.5 | median number of visibly damaged neurons, CA1 ([4]; 20 mg/kg IP pre-occlusion): 18.0 | significance of reduction in neuronal damage, CA2 ([4]; CA2 region): did not rise to the level of significance at the 95% confidence level | number of injured neurons vs saline-treated controls ([4]; all treatment dosages): substantially reduced | protection against ischemia [4]: quite substantial and beneficial; also recorded: substantial and beneficial protection against actual ischemia | significance level of reduction in neuronal damage, subiculum and CA1 ([4]; subiculum and CA1 regions): ≥ 98%

N=C(N)NCCC[C@H](NC(=O)[C@@H](N)CCCNC(=N)N)C(=O)NCCN(CCNC(=O)[C@H](CCCNC(=N)N)NC(=O)[C@@H](N)CCCNC(=N)N)CCNC(=O)[C@H](CCCNC(=N)N)NC(=O)[C@@H](N)CCCNC(=N)N [CYP-PA2, Tris(arginyl-arginyl-2-aminoethyl)amine]
IC50 [1]: > 100 µM | neuroprotective activity in hippocampal slices [2]: substantial neuroprotective activity; also recorded: potent neuroprotective benefits | EC50 [2, 7]: 42 µM | EC50 [2, 8]: 43 µM | EC50 [2, 9]: 37 µM | EC50 [2, 10]: 38 µM | relative potency in hippocampal slices [2]: somewhat more potent than the tri-arginine compound, CYP-PA1 | LD50 ([3]; read-out: LD50): ~125 mg/kg | LD50 ([3]; read-out: LD50 level): 125 mg/kg | statistical significance of reduction of neuronal damage ([4]; 10 mg/kg IP single injection): did not reach the 95% confidence level | neurons damaged ([4]; 10 mg/kg IP single injection 30 minutes before ischemia, untreated control 74.6%): 56.1% | neurons showing visible damage ([4]; 2 x 30 mg/kg IP, 30 minutes before and 90 minutes after ischemia, untreated control 74.6%): 40.9% | statistical significance of neuroprotective activity ([4]; 2 x 30 mg/kg IP, confidence level): > 95% | protection against ischemia [4]: good neuroprotective activity; also recorded: substantial and beneficial protection against actual ischemia

N=C(N)NCCC[C@H](NC(=O)[C@@H](N)CCCNC(=N)N)C(=O)NCCN(CCN)CCNC(=O)[C@H](CCCNC(=N)N)NC(=O)[C@@H](N)CCCNC(=N)N [CYP-PA2X]
relative potency in hippocampal slices [2]: not as potent as the fully di-arginylated compound CYP-PA2

COC(=O)C1=C(C)NC(C)=C(C(=O)OCCN(C)Cc2ccccc2)C1c1cccc([N+](=O)[O-])c1 (centres unmarked) [nicardipine]
binding to L-type channels [5]: bind to L-type channels | binding to T channels [6]: not to T or N channels

COC(=O)C1=C(C)NC(C)=C(C(=O)OC)C1c1ccccc1[N+](=O)[O-] [nifedipine]
binding to L-type channels [5]: bind to L-type channels | binding to T channels [6]: not to T or N channels

Fc1ccc(C(c2ccc(F)cc2)N2CCN(C/C=C/c3ccccc3)CC2)cc1 [flunarizine]
binding to L-type channels [5]: bind to L-type channels | binding to T channels [6]: not to T or N channels

Source: patent US6063819A (priority 1998, dated 2000)
